Laboratory results reported in US5484778A, “Phthalocyanine photosensitizers for photodynamic therapy and methods for their use” (priority 1993, dated 1996).
Like-named read-outs stand apart in the source and are kept apart here.

Experiments:
[1] = tested on: V79 cells; test: Clonogenicity, killing of V79 cells using photodynamic therapy (Table 3); format: cell-based, Chinese hamster
Procedure: Using the cell culture methods described above, V79 cells Chinese hamster lung fibroblasts were treated with either 0.5 or 1.0 μM of the phthalocyanines listed in Table 3. About 18 hours thereafter, the cells were irradiated with increasing doses of 675 nm broad band red light from a 500 W tungsten-halogen lamp fitted with a 600 nm high pass filter, to determine the light dosage that would kill 90% of the phthalocyanine treated cells. Where 90% of the cells were not killed, the maximum percent of cells killed were determined, (expressed as % survival) and the related light dosage recorded.

[2] = tested on: V79 cells; test: Uptake of additional phthalocyanines into V79 cells (Table 2); conditions: for Uptake into V79 cells: 18 hours; for Uptake into V79 cells, composite value: average of all data; for Uptake (from Table 2): repeated in Table 3; for dependence of uptake on phthalocyanine concentration: V79 cells, 1-4 μM; for Uptake into V79 cells, composite value (asterisk): asterisk: listed value is for 1 μM, average would be higher
Procedure: V79 cells Chinese hamster lung fibroblasts were cultured using the cell culture methods described above. […] When the filters were dry, the phthalocyanines were extracted into ethanol and the absorption determined at the peak wavelength, usually 668 nm.

[3] = tested on: L5178Y cells; test: Induction of apoptosis (DNA fragmentation) in L5178Y-R cells (Table 6); format: cell-based, mouse; conditions: for induction of apoptosis: 1 μM at a fluence of 30 kJ/m^2
Procedure: Mouse lymphoma L5178y-R (hereinafter also referred to as "LY-R") cells were grown in suspension culture as described in Ramakrishnan N., Oleinick, N. L. Clay, M. E., Horng, M. F., Antunez, A. R., and Evans H. H., DNA lesions and DNA degradation in mouse lymphoma L5178Y cells after photodynamic treatment sensitized by chloroaluminum phthalocyanine. Photochem. Photobiol. 50, 373-378, 1989 and Agarwal, M. L., Clay, M. E., Harvey, E. J., Evans, H. H., Antunez, A. R., and Oleinick, N. L. Photodynamic therapy induces rapid cell death by apoptosis in L5178Y mouse lymphoma cells. Cancer Res., 51, 5993-5996, 1991.
The cells were used while in exponential growth. Stock solutions of either 0.5 or 1 mM of PcIV, PcXII, PcX, PcXVIII were prepared in dimethylformamide unless otherwise indicated and added to the 10 mL medium at a rate of 1 μL per mL. After allowing 18 hours for uptake of the phthalocyanine into the cells, the flasks containing the cultures were placed on a glass exposure tray above a 500-W tungsten-halogen lamp. The exposure tray was fitted with a 600-nm high-pass filter. Flasks were exposed to various fluences of red light (up to 30 kJ/m^2) at a fluence rate of approximately 74 W/m^2). After irradiation, the cells were collected by centrifugation.
For measurement of clonogenic cell survival, aliquots were plated in medium containing soft agar as described in Ramakrishnan N., Oleinick, N. L. Clay, M. E., Horng, M. F., Antunez, A. R., and Evans H. H., DNA lesions and DNA degradation in mouse lymphoma L5178Y cells after photodynamic treatment sensitized by chloroaluminum phthalocyanine. Photochem. Photobiol. 50, 373-378, 1989. The aliquots were plated in sufficient numbers to produce 50-200 colonies. The dishes were kept in an incubator at 37° C. in an atmosphere of 5% CO2 and 95% air for 10-14 days to allow viable cells to form colonies. Colonies were counted by eye. Controls treated with the phthalocyanine alone had plating efficiencies of ~90%. The plating efficiencies of the treated cells are normalized to the plating efficiencies of control cells in each experiment. For measurement of the induction of apoptosis, DNA was isolated from the treated and control cells 2 hours after photodynamic therapy, subjected to electrophoresis on 1.5% agarose, stained with ethidium bromide, and visualized by UV transillumination, as described in Agarwal et. al. The results are shown in Tables 4, 5 and 6 and in FIG. 3.
Cells were treated with various concentrations of the compounds listed in the table and various light fluences. DNA gels were prepared and examined for the characteristic "ladder" pattern of DNA fragments. For each Pc, the minimum total PDT dose tested (calculated as the product of the minimum phthalocyanine concentration and the minimum fluence) which produced visible DNA fragments is recorded. […] PcXVIII was also added at 0.5 and 1.0 μM.

[4] = tested on: RIF-1 tumors; test: PDT of RIF-1 implanted tumors (Table 7); format: in vivo, C3H/HeN mice; conditions: 5 mg/kg in phosphate buffered saline; 675 nm, 135 J/cm^2
Procedure: The relative effectiveness at reducing tumor volume of selected phthalocyanine compounds at a given dosage was compared in vivo. RIF-1, i.e., radiation-induced fibrosarcoma, tumors were implanted into the backs of C3H/HeN mice. One tumor was implanted per mouse. Each of the phthalocyanine compounds listed in Table 7 was sonicated and vortexed in corn oil to produce a suspension. When the tumors reached […] in diameter and 2-3 mm in thickness, each mouse received 1 mg/kg in 0.1 ml of the corn oil, of the phthalocyanine suspension. For comparison, select mice received a conventional photosensitizer; either 5 mg/kg of chloroaluminum phthalocyanine tetrasulfonate, herein also referred to as "AlPcTS" in phosphate buffered saline or 5 mg/kg of Photofrin®-II in 5% dextrose. Twenty-four hours after the photosensitizers were administered, the tumors were irradiated with visible radiation delivered by an argon-pumped dye laser. The mice that received a phthalocyanine photosensitizer received light having a wavelength of 675 nm and the mice that received the Photofrin® II photosensitizer received light having a wavelength of 630 nm. Each tumor received 135 J/cm^2 of radiation. Tumor size was measured every day using calipers. The initial tumor volume was 50±10 mm^3. Tumor volume was calculated according to the hemiellipsoid model by the formula: [formula] Where l is length Where W is width

[5] = Cricetulus griseus, V79, 1 μM, at 10 kJ/m^2, read-out: Maximum Effect (% survival)
[6] = Cricetulus griseus, V79, 0.5 μM, at 10 kJ/m^2, read-out: Maximum Effect (% survival)

| Molecule | Uptake into V79 cells ([2]; 4 μM) [n Moles/10^6 cells] | Uptake into V79 cells, composite value [2] [n Moles/10^6 cells/μM] | Uptake (from Table 2) [2] [n Moles/10^6 cells/μM] | Uptake into V79 cells ([2]; 1 μM) [n Moles/10^6 cells] | further results |
| --- | --- | --- | --- | --- | --- |
| C[Si](C)(CCCO)O[Si]1(O)n2c3c4ccccc4c2N=C2N=C(N=c4c5ccccc5c(n41)=NC1=NC(=N3)c3ccccc31)c1ccccc12 (stereo not shown) [Compound XVII, HOSiPCOSi(CH3)2 (CH2)3 OH] | 1.7 ± 0.2 | 0.4 | 0.4 |  | Cell survival at highest light dose at 1 µM [1, 5]: 19% |
| CC(=O)OCCC[Si](C)(C)O[Si]1(O)n2c3c4ccccc4c2N=C2N=C(N=c4c5ccccc5c(n41)=NC1=NC(=N3)c3ccccc31)c1ccccc12 (stereo not shown) [Compound XIII, HOSiPcOSi(CH3)2 (CH2)3 OCOCH3] | 1.7 ± 0.3 | 0.4 | 0.4 |  | Cell survival at highest light dose at 1 µM ([1]; Cricetulus griseus, V79, 1 μM, at 15 kJ/m^2, read-out: Maximum Effect (% survival)): 88% |
| C[Si](C)(CCCN1CCSCC1)O[Si]1(O)n2c3c4ccccc4c2N=C2N=C(N=c4c5ccccc5c(n41)=NC1=NC(=N3)c3ccccc31)c1ccccc12 (stereo not shown) [Compound XXIV, HOSiPCOSi(CH3)2 (CH2)3 NC4 H8 S] | 1.3 ± 0.1 |  | < 0.05 | 0.003 ± 0.001 | Cell survival at highest light dose at 0.5 µM [1, 6]: 100%; dependence of uptake on phthalocyanine concentration [2]: not linearly dependent upon the phthalocyanine concentration; Uptake into V79 cells, composite value (asterisk) [2]: < 0.05 n Moles/10^6 cells/μM |
| C[Si](C)(CCCN=C=S)O[Si]1(O)n2c3c4ccccc4c2N=C2N=C(N=c4c5ccccc5c(n41)=NC1=NC(=N3)c3ccccc31)c1ccccc12 (stereo not shown) [Compound XXVI, HOSiPcOSi(CH3)2 (CH2)3 NCS] |  |  |  |  | Cell survival at highest light dose at 1 µM ([1]; Cricetulus griseus, V79, read-out: Maximum Effect (% survival)): 100% |
| CCN(CC)c1ccc2c(c1)Oc1cc(N(CC)CC)ccc1C21c2ccccc2C(=O)N1CCCC[Si](C)(C)O[Si]1(O[Si](C)(C)C(C)(C)C)n2c3c4ccccc4c2N=C2N=C(N=c4c5ccccc5c(n41)=NC1=NC(=N3)c3ccccc31)c1ccccc12 (stereo not shown) [Compound XV, (CH3)3 C(CH3)2 SiOSiPcOSi(CH3)2 (CH2)4 NCOC27 H30 N2 O] | 0.14 ± 0.12 | < 0.05 | 0.05 | 0.01 ± 0.01 | Cell survival at highest light dose at 4 µM ([1]; Cricetulus griseus, V79, 4 μM, at 20 kJ/m^2, read-out: Maximum Effect (% survival)): 81%; induction of apoptosis [3]: did not induce apoptosis |
| chloroaluminum phthalocyanine tetrasulfonate [AlPcTS, reference compound] |  |  |  |  | Doubling Time of Initial Tumor Volume after PDT [4]: 7 days |
| CCCCN1CCN(CCC[Si](C)(C)O[Si]2(O)n3c4c5ccccc5c3N=C3N=C(N=c5c6ccccc6c(n52)=NC2=NC(=N4)c4ccccc42)c2ccccc23)CC1 (stereo not shown) [Compound XXXI, HOSiPCOSi(CH3)2 (CH2)3 NC4 H8 N(CH2)3 CH3] |  | 0.3 | 0.3 |  | Cell survival at highest light dose at 0.5 µM [1, 6]: 30%; Uptake into V79 cells ([2]; 2 μM): 0.61 ± 0.1 n Moles/10^6 cells |
| CN(C)CCCCCCCC[Si](C)(C)O[Si]1(O)n2c3c4ccccc4c2N=C2N=C(N=c4c5ccccc5c(n41)=NC1=NC(=N3)c3ccccc31)c1ccccc12 (stereo not shown) [Compound XXII, HOSiPcOSi(CH3)2 (CH2)8 N(CH3)2] |  |  |  |  | LD 90 ([1]; 0.5 μM, 18 h, light dose killing 90% of cells): 10 kJ/m^2; Minimum Demonstrated Condition to induce apoptosis: C × F ([3]; 0.5 μM): 5.0 μm × kJ/m^2; Minimum Demonstrated Condition to induce apoptosis: Fluence ([3]; 0.5 μM): 10.0 kJ/m^2 |
| C[Si](C)(CCCN1CCOCC1)O[Si]1(O)n2c3c4ccccc4c2N=C2N=C(N=c4c5ccccc5c(n41)=NC1=NC(=N3)c3ccccc31)c1ccccc12 (stereo not shown) [Compound XIX, HOSiPcOSi(CH3)2 (CH2)3 NC4 H8 O] | 2.4 ± 0.5 |  | 1.3 | 0.3 ± 0.1 | Cell survival at highest light dose at 1 µM [1, 5]: 81%; photosensitizing activity, killing V79 cells (in words) ([1]; discussion of Table 3): less active as a photosensitizer; uptake by V79 cells (in words) [2]: poor uptake; dependence of uptake on phthalocyanine concentration [2]: not linearly dependent upon the phthalocyanine concentration; Uptake into V79 cells, composite value (asterisk) [2]: 0.3 n Moles/10^6 cells/μM |
| CCCCN(CCCC)CCC[Si](C)(C)O[Si]1(O)n2c3c4ccccc4c2N=C2N=C(N=c4c5ccccc5c(n41)=NC1=NC(=N3)c3ccccc31)c1ccccc12 (stereo not shown) [Compound XXV, HOSiPcOSi(CH3)2 (CH2)3 N(CH2)3 CH3)2] | 1.5 ± 0.3 |  | < 0.05 | 0.02 ± 0.02 | Cell survival at highest light dose at 0.5 µM ([1]; Cricetulus griseus, V79, 0.5 μM, at 8 kJ/m^2, read-out: Maximum Effect (% survival)): 87%; dependence of uptake on phthalocyanine concentration [2]: not linearly dependent upon the phthalocyanine concentration; Uptake into V79 cells, composite value (asterisk) [2]: < 0.05 n Moles/10^6 cells/μM |
| C[Si](C)(CCCCNC(=S)N[C@@H]1O[C@H](CO)[C@@H](O)[C@H](O)[C@H]1O)O[Si]1(O[Si](C)(C)CCCCNC(=S)N[C@@H]2O[C@H](CO)[C@@H](O)[C@H](O)[C@H]2O)n2c3c4ccccc4c2N=C2N=C(N=c4c5ccccc5c(n41)=NC1=NC(=N3)c3ccccc31)c1ccccc12 [Compound XI, SiPc[OSi(CH3)2 (CH2)4 NHCSNHC6 H11l O5 ]2] | 0.3 ± 0.1 | 0.1 | 0.1 | 0.1 | Cell survival at highest light dose at 1 µM ([1]; Cricetulus griseus, V79, 1 μM, at 20 kJ/m^2, read-out: Maximum Effect (% survival)): 100%; induction of apoptosis [3]: did not induce apoptosis |
